{"source": "paper PMC3944389", "about": "“Differential Neuroprotective Effects of 5′-Deoxy-5′-Methylthioadenosine” (PLoS ONE, 2014)", "key": {"[1]": {"test": "Parallel artificial membrane permeability assay (PAMPA), BBB model, passive diffusion", "format": "in vitro ADME", "description": "The PAMPA assay was used to determine the capacity of compounds to cross a blood brain barrier (BBB) model by passive diffusion, measuring the effective permeability of the compounds at an initial concentration of 200 µM. The buffer solution was prepared from a concentrated commercial solution (Pion, Billerica, MA, US) according to the manufacturer's instructions and the pH was adjusted to 7.4 with 0.5 M NaOH. The compound of interest was dissolved in the buffer solution (200 µM), the PAMPA sandwich was separated and the donor well was filled with 195 µL of the compound of interest. The acceptor plate and donor plate were brought together, with the underside of the membrane in contact with the buffer. An 4 µL aliquot of the phospholipid mixture (20 mg/ml) in dodecane was added to the filter of each well, and then 200 µL of buffer solution was added to each acceptor well. The plate was covered and incubated for 4 h at RT in a saturated humidity atmosphere with agitation and with 25 µm of an unstirred water layer in the Gut-Box (Pion). After 4 h, a 150 µL/well sample from the donor plate and a 150 µL/well sample from the acceptor plate were transferred to HPLC vials. Then, 100 µL from acceptor well, 5 µL from the donor well and 5 µL from the t0 samples were injected into an HPLC reverse-phase symmetry C18 column (150 mm×4.6 mm×5 µm, 100 Å; Waters). Transport was confirmed by HPLC mass spectrometry and matrix-assisted laser desorption/ionization time-of-flight (MALDI-TOF) spectrometry to ensure the compound had maintained its integrity. The phospholipid mixture used was a porcine polar brain lipid extract composed of 12.6% phosphatidylcholine (PC), 33.1% phosphatidylethanolamine (PE), 18.5% phosphatidylserine (PS), 4.1% phosphatidylinositol (PI), 0.8% phosphatidic acid and 30.9% of other compounds."}, "[2]": {"system": "primary rat oligodendrocyte (OL) cultures", "test": "AMPA excitotoxicity in primary oligodendrocytes, calcein-AM viability", "format": "cell-based", "conditions": "MTA 100 and 300 µM pre-incubated 15 min, viability 24 h after AMPA", "description": "Primary rat oligodendrocyte (OL) cultures were derived from the optic nerve of 12-day-old Sprague-Dawley rats, as described previously. Cells were seeded onto 12 mm diameter coverslips coated with poly-D-lysine (10 µg/ml) in 24-well plates at a density of 5×10^3 cells per well. The cells were maintained at 37°C in 5% CO2 and in a chemically defined medium. After 2–4 days in vitro, the cultures were composed of at least 98% O4/galactocerebroside-positive (O4/GalC) cells, while the majority of the remaining cells were stained with antibodies against glial fibrillary acidic protein (GFAP). No A2B5^+ or microglial cells were detected in these cultures.\nFor a-amino-3-hydroxy-5-methyl-4-isoxazolepropionic acid (AMPA) assays in primary rat OLs, cells were pre-incubated with MTA (100 µM and 300 µM) for 15 min and then exposed to AMPA (10 µM) for an additional period of 15 min. Cell viability was assessed with calcein-AM (Invitrogen) 24 h after application of AMPA, and the number of survival cells on each coverslip was detected by their fluorescence (515 nm filter) and quantified."}, "[3]": {"system": "C57Bl mice treated with MPTP", "test": "MPTP mouse model of Parkinson's disease, stereological counting of TH+ neurons", "format": "in vivo", "conditions": "MTA 30 mg/kg, MSX-3 10 mg/kg (legend: 9 mg/kg), alone or combined; MPTP 30 mg/kg i.p. 5 days", "description": "12-week-old male C57Bl mice from Charles River (Barcelona, Spain) were injected i.p. with 30 mg/kg 1-methyl-4-phenyl-1,2,3,6-tetrahydropyridine (MPTP, Sigma-Aldrich) on five consecutive days. Subsequently, MTA (30 mg/kg) and/or the A2A adenosine receptor (A2AR, 10 mg/kg) antagonist, MSX-3 (Sigma-Aldrich), was administered one day before starting MPTP treatment and 1 h after each MPTP injection (n = 6 in each experimental group). We used mice in the MPTP model because rats are resistant to systemic MPTP administration and thus, the rat MPTP model requires stereotaxic MPTP injection directly into the nigrostriatal fibers. […]\nThe reference volume was calculated according to Cavalieri principles from images obtained with a 2× objective using a point count array. The cross-sectional area of the nucleus was measured and the reference volume (Vr) for the entire nucleus was estimated using the following equation: [drawing 1] where T is the thickness of the sections, a/p is the area of each point and Pi is the number of points that landed within the area. The region of interest to estimate the area was outlined at low magnification (4×), and the number of labeled neurons was calculated under 100× magnification (with oil immersion) using randomized meander sampling and the optical dissector methods. […]"}}, "note": "Marks after values point to notes of the source that are not given here."}
{"substance": "5′-deoxy-5′-methylthioadenosine [MTA]", "values": [{"measurement": "Membrane retention", "setting": "[1]", "result": "negligible"}, {"measurement": "effective permeability in PAMPA (in words)", "setting": "[1]", "result": "low to intermediate effective permeability"}, {"measurement": "% Membrane retention", "setting": "[1]; 200 µM, pH 7.4, 4 h at RT", "result": 0, "unit": "%"}, {"measurement": "Pe x 10^−6 (cm/s)", "setting": "[1]; 200 µM, pH 7.4, 4 h at RT", "result": "0.15 ^* x 10^−6 cm/s"}, {"measurement": "protection of OLs against AMPA toxicity (calcein-AM)", "setting": "[2]", "result": "fully protected"}, {"measurement": "neuroprotection: TH+ neurons in the substantia nigra", "setting": "[3]", "result": "not statistically significant"}]}
